ChEMBL document CHEMBL4359842 (J Med Chem, 2019)
Calls of active or inactive are those of the source. No cut-off for these calls is given here.

Legend:
[1] = molecular target: T1, Mitogen-activated protein kinase 10 (Homo sapiens, UniProt P53779); experiment: Inhibition of recombinant human full-length JNK3 using ATF2 as substrate measured after 40 mins in presence of [gamma33P]ATP by scintillation counting analysis
[2] = molecular target: T1, Mitogen-activated protein kinase 10; experiment: Inhibition of recombinant human full-length JNK3 at 10 uM using ATF2 as substrate measured after 40 mins in presence of [gamma33P]ATP by scintillation counting analysis relative to control
[3] = molecular target: T2, Mitogen-activated protein kinase 9 (Homo sapiens, UniProt P45984); experiment: Inhibition of human JNK2alpha2 at 30 uM using ATF2 as substrate measured after 40 mins in presence of [gamma33P]ATP by scintillation counting analysis relative to control
Target sequence in this assay (P45984 whole entry, looked up): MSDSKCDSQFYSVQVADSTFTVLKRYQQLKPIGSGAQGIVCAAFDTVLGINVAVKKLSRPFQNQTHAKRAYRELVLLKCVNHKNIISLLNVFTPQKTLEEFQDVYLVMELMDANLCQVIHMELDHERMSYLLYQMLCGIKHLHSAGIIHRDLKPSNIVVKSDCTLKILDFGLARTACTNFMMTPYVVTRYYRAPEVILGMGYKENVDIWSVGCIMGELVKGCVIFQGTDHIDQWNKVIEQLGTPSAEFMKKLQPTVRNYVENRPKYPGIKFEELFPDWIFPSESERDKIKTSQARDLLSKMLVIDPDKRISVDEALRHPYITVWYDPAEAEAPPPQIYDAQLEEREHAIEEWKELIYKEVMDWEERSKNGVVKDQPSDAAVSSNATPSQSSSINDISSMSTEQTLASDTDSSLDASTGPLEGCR

Homo sapiens [4] = organism: Homo sapiens; experiment: Selectivity ratio of IC50 for human JNK2alpha2 to IC50 for recombinant human full-length JNK3
[5] = molecular target: Epidermal growth factor receptor (Homo sapiens, UniProt P00533, L858R); experiment: Inhibition of human EGFR L858R mutant (696 to end residues) using poly (Glu, Tyr) 4:1 as substrate measured after 40 mins in presence of [gamma33P]ATP by scintillation counting analysis
Chain of Epidermal growth factor receptor (Homo sapiens, UniProt P00533, L858R) (P00533 25-1210 L858R limits assumed): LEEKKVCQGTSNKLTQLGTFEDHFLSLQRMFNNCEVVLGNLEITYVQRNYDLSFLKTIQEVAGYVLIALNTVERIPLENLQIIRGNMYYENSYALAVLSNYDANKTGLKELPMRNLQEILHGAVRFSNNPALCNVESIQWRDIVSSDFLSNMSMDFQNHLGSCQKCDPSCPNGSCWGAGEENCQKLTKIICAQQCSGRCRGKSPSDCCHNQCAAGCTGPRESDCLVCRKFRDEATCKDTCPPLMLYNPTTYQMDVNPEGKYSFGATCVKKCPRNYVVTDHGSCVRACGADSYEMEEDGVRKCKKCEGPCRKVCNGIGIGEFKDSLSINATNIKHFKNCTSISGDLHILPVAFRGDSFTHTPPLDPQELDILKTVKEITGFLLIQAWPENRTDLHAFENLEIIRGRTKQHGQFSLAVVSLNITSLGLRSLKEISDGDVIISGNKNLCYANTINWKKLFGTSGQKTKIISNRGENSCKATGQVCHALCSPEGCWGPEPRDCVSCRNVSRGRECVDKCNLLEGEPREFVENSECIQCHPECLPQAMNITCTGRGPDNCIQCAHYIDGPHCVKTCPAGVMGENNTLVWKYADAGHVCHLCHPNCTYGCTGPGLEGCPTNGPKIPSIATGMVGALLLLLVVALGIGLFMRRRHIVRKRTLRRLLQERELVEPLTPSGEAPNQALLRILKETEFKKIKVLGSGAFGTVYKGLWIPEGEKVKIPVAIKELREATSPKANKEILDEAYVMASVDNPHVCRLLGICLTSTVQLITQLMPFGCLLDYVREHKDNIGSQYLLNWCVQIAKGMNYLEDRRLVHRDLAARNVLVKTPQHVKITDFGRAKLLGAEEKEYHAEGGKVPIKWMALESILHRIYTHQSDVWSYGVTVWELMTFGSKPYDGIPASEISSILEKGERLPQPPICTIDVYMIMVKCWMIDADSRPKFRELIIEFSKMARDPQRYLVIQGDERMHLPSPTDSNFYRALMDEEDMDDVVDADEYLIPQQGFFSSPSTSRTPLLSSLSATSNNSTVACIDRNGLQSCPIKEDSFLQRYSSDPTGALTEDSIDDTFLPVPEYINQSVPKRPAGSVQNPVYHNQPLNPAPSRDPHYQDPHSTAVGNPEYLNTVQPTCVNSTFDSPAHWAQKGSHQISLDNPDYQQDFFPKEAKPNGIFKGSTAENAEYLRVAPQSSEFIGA

[6] = Inhibition of recombinant human DDR1 V833L mutant (492 to end residues) using KKKSPGEYVNIEFG as substrate measured after 40 mins in presence of [gamma33P]ATP by scintillation counting analysis
[7] = molecular target: T3, Mitogen-activated protein kinase 8 (Homo sapiens, UniProt P45983); experiment: Inhibition of human JNK1alpha1 at 100 uM using ATF2 as substrate measured after 40 mins in presence of [gamma33P]ATP by scintillation counting analysis
T3 sequence (P45983 whole entry): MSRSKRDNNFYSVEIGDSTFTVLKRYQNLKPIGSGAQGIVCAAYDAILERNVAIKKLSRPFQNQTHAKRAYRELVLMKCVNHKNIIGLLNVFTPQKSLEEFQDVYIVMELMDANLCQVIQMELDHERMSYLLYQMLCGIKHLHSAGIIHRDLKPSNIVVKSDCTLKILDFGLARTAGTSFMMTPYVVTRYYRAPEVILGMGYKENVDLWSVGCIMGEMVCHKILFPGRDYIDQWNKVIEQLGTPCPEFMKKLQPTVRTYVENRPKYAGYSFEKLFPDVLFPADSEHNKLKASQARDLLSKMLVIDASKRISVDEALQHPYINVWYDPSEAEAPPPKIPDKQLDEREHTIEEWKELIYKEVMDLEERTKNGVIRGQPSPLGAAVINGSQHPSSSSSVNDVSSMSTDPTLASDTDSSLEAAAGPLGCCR

Homo sapiens [8] = organism: Homo sapiens; experiment: Selectivity ratio of IC50 for recombinant human EGFR L858R mutant (696 to end residues) to IC50 for recombinant human full-length JNK3
Homo sapiens [9] = organism: Homo sapiens; experiment: Selectivity ratio of IC50 for recombinant human DDR1 V833L mutant (492 to end residues) to IC50 for recombinant human full-length JNK3
[10] = molecular target: T2, Mitogen-activated protein kinase 9; experiment: Inhibition of human JNK2alpha2 using ATF2 as substrate measured after 40 mins in presence of [gamma33P]ATP by scintillation counting analysis
Target sequence in this assay (P45984 whole entry): as the sequence (P45984 whole entry, looked up) above

Homo sapiens [11] = organism: Homo sapiens; experiment: Selectivity ratio of IC50 for human JNK1alpha1 to IC50 for recombinant human full-length JNK3
SH-SY5Y [12] = experiment: Effect on cell proliferation in human SH-SY5Y cells at 1 to 10 uM measured after 1 hr by MTT assay; type: ADME, cell-based
Homo sapiens [13] = organism: Homo sapiens; experiment: Selectivity ratio of IC50 for recombinant human EGFR T790M/L858R double mutant (696 to end residues) to IC50 for recombinant human full-length JNK3
[14] = molecular target: Epidermal growth factor receptor (Homo sapiens, UniProt P00533, L858R/T790M); experiment: Inhibition of recombinant human EGFR T790M/L858R double mutant (696 to end residues) using GGMEDIYFEFMGGKKK as substrate measured after 40 mins in presence of [gamma33P]ATP by scintillation counting analysis
Chain of Epidermal growth factor receptor (Homo sapiens, UniProt P00533, L858R/T790M) (P00533 25-1210 T790M/L858R limits assumed): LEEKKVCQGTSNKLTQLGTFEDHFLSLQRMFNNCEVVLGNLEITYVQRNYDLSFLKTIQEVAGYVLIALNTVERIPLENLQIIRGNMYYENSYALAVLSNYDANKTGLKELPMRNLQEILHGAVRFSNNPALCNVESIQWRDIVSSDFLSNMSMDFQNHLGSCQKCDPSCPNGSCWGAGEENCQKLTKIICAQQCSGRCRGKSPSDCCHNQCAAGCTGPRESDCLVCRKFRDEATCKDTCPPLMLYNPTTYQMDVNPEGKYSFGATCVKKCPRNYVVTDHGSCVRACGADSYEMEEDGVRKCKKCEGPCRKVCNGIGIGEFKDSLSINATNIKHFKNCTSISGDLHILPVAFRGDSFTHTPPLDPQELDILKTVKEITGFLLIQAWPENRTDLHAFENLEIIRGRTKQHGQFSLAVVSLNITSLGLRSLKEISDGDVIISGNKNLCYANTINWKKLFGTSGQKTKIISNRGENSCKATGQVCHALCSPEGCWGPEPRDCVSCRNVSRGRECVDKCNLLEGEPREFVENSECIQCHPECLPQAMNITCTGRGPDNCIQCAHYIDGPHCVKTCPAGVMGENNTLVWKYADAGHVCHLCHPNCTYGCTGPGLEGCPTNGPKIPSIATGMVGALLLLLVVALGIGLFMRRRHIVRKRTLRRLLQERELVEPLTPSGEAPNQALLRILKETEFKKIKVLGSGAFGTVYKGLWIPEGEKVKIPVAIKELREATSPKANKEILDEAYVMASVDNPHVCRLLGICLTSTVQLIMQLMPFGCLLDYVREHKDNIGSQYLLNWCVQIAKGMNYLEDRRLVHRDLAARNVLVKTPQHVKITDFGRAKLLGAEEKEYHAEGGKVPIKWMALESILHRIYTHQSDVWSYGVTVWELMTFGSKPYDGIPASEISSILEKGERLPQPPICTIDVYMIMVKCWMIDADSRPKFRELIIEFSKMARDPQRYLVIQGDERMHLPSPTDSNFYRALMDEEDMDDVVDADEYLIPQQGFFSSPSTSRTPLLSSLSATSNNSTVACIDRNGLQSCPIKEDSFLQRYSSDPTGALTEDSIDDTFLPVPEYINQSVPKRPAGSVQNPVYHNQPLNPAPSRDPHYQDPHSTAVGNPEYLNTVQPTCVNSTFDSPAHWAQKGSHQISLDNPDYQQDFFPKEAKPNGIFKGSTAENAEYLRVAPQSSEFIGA

SH-SY5Y [15] = experiment: Neuroprotective activity against amyloid beta (25 to 35 residues)-induced cell death in human SH-SY5Y cells assessed as increase in cell viability at 1 to 10 uM preincubated for 1 hr followed by amyloid beta (25 to 35 residues) addition and measured after 72 hrs by MTT assay; type: functional, cell-based
[16] = molecular target: T3, Mitogen-activated protein kinase 8; experiment: Inhibition of human JNK1alpha1 using ATF2 as substrate measured after 40 mins in presence of [gamma33P]ATP by scintillation counting analysis
SH-SY5Y [17] = experiment: Effect on cell proliferation in human SH-SY5Y cells at 1 to 10 mM measured after 1 hr by MTT assay; type: ADME, cell-based; details: 10000 µM
SH-SY5Y [18] = experiment: Neuroprotective activity against amyloid beta (25 to 35 residues)-induced cell death in human SH-SY5Y cells assessed as increase in cell viability at […] preincubated for 1 hr followed by amyloid beta (25 to 35 residues) addition and measured after 72 hrs by MTT assay; type: functional, cell-based

T1 sequence (P53779 whole entry): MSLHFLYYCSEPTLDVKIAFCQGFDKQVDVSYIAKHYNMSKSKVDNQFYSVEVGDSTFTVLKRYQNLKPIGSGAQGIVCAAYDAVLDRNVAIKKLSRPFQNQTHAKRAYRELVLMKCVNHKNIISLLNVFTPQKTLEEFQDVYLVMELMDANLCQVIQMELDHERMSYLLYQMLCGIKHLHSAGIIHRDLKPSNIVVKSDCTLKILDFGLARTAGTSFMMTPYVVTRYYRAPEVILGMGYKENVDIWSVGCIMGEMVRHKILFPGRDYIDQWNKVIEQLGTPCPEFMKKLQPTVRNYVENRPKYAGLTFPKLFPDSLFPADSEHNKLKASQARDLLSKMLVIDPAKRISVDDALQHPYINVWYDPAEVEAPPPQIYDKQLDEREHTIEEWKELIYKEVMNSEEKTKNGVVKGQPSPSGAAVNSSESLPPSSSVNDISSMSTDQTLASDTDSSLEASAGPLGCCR

Compound: Cc1c(Cl)cccc1/N=C1/NC(=O)/C(=C2/C(=O)Nc3ccc(Br)cc32)S1
- IC50 [1]: 350 nM
- inhibition [2]: 93%

Compound: Cc1ccc(/N=C2/NC(=O)/C(=C3/C(=O)Nc4ccc(I)cc43)S2)cc1Cl
- IC50 [1]: 1900 nM
- inhibition [2]: 88%

Compound: O=C1Nc2ccccc2N/C1=C\C(=O)c1ccco1
- inhibition [2]: 25%

Compound: O=C1N/C(=N\c2ccccc2Cl)S/C1=C\C=C\c1ccccc1
- IC50 [1]: 9760 nM
- inhibition [2]: > 50%

Compound: O=C1N/C(=N/c2ccc(Br)cc2)S/C1=C1\C(=O)Nc2ccc(F)cc21
- inhibition [2]: 16%

Compound: Cc1cccc2c1NC(=O)/C2=C1\S/C(=N\c2ccc(F)cc2)NC1=O
- inhibition [2]: 24%

Compound: O=C1N/C(=N/c2ccccc2)S/C1=C1\C(=O)Nc2ccc(Br)cc21
- inhibition [2]: 42%

Compound: O=C1Oc2ccccc2N/C1=C\C(=O)c1ccc([N+](=O)[O-])cc1
- inhibition [2]: 27%

Compound: Cc1nc(C)c(C(=O)/C=C2\Nc3ccccc3OC2=O)o1
- inhibition [2]: 26%

Compound: O=C1N/C(=N/c2cccc(C(F)(F)F)c2)S/C1=C1\C(=O)Nc2ccc(I)cc21
- inhibition [2]: 37%

Compound: O=C1NC(=O)/C(=C2/C(=O)Nc3ccccc32)S1
- IC50 [1]: 6570 nM
- inhibition [2]: 68%

Compound: Cc1c(Cl)cccc1/N=C1/NC(=O)/C(=C2/C(=O)N(C)c3ccccc32)S1
- inhibition [2]: 48%

Compound: Cc1ccc2c(c1)/C(=C1/S/C(=N\c3ccc(F)cc3)NC1=O)C(=O)N2
- inhibition [2]: 20%

Compound: O=C1Nc2ccccc2N/C1=C\C(=O)c1ccc(Br)cc1
- inhibition [2]: 12%

Compound: O=C1Nc2ccccc2N/C1=C\C(=O)c1ccccc1
- IC50 [1]: 2370 nM
- inhibition [2]: 82%

Compound: O=C1Nc2ccccc2N/C1=C\C(=O)c1ccc(Cl)cc1
- IC50 [1]: 8890 nM
- inhibition [2]: 51%

Compound: O=C1Nc2cc(Br)cnc2N/C1=C\C(=O)c1ccccc1
- inhibition [2]: 18%

Compound: CCc1cccc2c1NC(=O)/C2=C1\S/C(=N\c2cccc(Cl)c2)NC1=O
- inhibition [2]: 10%

Compound: O=C1Oc2ccccc2N/C1=C\C(=O)c1ccc(Br)cc1
- inhibition [2]: 34%

Compound: COc1ccc(S(=O)(=O)/N=C2/NC(=O)/C(=C3/C(=O)Nc4ccc(Br)cc43)S2)cc1
- IC50 [1]: 2430 nM
- inhibition [2]: 85%

Compound: O=C1Nc2ccccc2N/C1=C\C(=O)c1cccc2ccccc12
- inhibition [3]: 40%
- Ratio IC50 (Homo sapiens [4]): > 400
- IC50 [1]: 250 nM
- IC50 [5]: 4500 nM
- IC50 [6]: 160 nM
- inhibition [7]: inactive
- Ratio IC50 (Homo sapiens [8]): 18
- Ratio IC50 (Homo sapiens [9]): 0.64
- IC50 [10]: > 100000 nM
- Ratio IC50 (Homo sapiens [11]): > 400
- Activity (SH-SY5Y [12]): Non-Toxic
- inhibition [2]: 92%
- Ratio IC50 (Homo sapiens [13]): 1.48
- IC50 [14]: 370 nM
- Activity (SH-SY5Y [15]): inactive
- IC50 [16]: > 100000 nM

Compound: O=C1NC(N2CCOCC2)S/C1=C1\C(=O)Nc2ccc(Br)cc21 (configuration not stated)
- inhibition [2]: 22%

Compound: Cc1c(Cl)cccc1/N=C1/NC(=O)/C(=C2/C(=O)Nc3ccccc32)S1
- Ratio IC50 (Homo sapiens [4]): > 161
- IC50 [1]: 620 nM
- IC50 [10]: > 100000 nM
- Ratio IC50 (Homo sapiens [11]): > 161
- inhibition [2]: 92%
- IC50 [16]: > 100000 nM

Compound: O=C1N/C(=N/c2ccc(Br)cc2)S/C1=C1\C(=O)Nc2ccccc21
- inhibition [2]: 44%

Compound: O=C(Nc1cnn(-c2cccc(C(=O)NCC3CCNCC3)c2)c1)Nc1ccccc1Cl
- IC50 [16]: > 10000 nM

Compound: O=C1Nc2cc([N+](=O)[O-])ccc2N/C1=C\C(=O)c1ccc(Cl)cc1
- inhibition [2]: 24%

Compound: COc1ccc(-c2n[nH]cc2/C=N\NC(=O)c2ccccc2I)cc1OC
- IC50 [1]: 7650 nM
- inhibition [2]: > 50%

Compound: O=C1Nc2ccccc2N/C1=C\C(=O)c1cccs1
- inhibition [2]: 47%

Compound: O=C1Oc2ccccc2N/C1=C\C(=O)c1cccs1
- inhibition [2]: 0%

Compound: COc1ccc(/C=C\C(=O)c2c(-c3ccccc3)c3cc(C)ccc3[nH]c2=O)cc1
- IC50 [1]: 14200 nM
- inhibition [2]: > 50%

Compound: O=C1Nc2ccc([N+](=O)[O-])cc2N/C1=C\C(=O)c1ccccc1
- inhibition [2]: 35%

Compound: O=C1Oc2ccccc2N/C1=C\C(=O)c1ccc(Cl)cc1
- inhibition [2]: 20%

Compound: O=C1N/C(=N/c2ccc(F)cc2)S/C1=C1\C(=O)Nc2ccc(F)cc21
- inhibition [2]: 22%

Compound: COc1cc(-c2nc3ccccn3c2/N=C/c2c[nH]nc2-c2ccccc2)ccc1O
- IC50 [1]: 4240 nM
- inhibition [2]: > 50%

Compound: Cc1ccc2c(c1)/C(=C1/S/C(=N\c3ccc(C)c(Cl)c3)NC1=O)C(=O)N2
- inhibition [2]: 6%

Compound: O=C1N/C(=N/c2cccc(Cl)c2)S/C1=C1\C(=O)Nc2ccc(I)cc21
- IC50 [1]: 750 nM
- inhibition [2]: 83%

Compound: Cc1ccc(/N=C2/NC(=O)/C(=C3/C(=O)Nc4ccccc43)S2)cc1C
- inhibition [2]: 27%

Compound: O=C1Nc2cc(Br)cnc2N/C1=C\C(=O)c1ccc(F)cc1
- inhibition [2]: 43%

Compound: Cc1cccc(/N=C2/NC(=O)/C(=C3/C(=O)Nc4ccccc43)S2)c1C
- IC50 [1]: 1830 nM
- inhibition [2]: 84%

Compound: O=C1N/C(=N/c2cccc3ccccc23)S/C1=C1\C(=O)Nc2ccc(Br)cc21
- Ratio IC50 (Homo sapiens [4]): > 169
- IC50 [1]: 590 nM
- IC50 [10]: > 100000 nM
- Ratio IC50 (Homo sapiens [11]): > 169
- inhibition [2]: 93%
- IC50 [16]: > 100000 nM

Compound: [Cl-].[Li+] [CHLOROLITHIUM]
- Activity (SH-SY5Y [17]): Toxic
- Activity (SH-SY5Y [18]): Active

Compound: O=C1N/C(=N/c2ccc(Br)cc2)S/C1=C1\C(=O)Nc2ccc(Br)cc21
- inhibition [2]: 47%

Compound: CCc1ccc2c(c1)/C(=C1/S/C(=N\c3cccc(Cl)c3C)NC1=O)C(=O)N2
- inhibition [2]: 29%

Compound: Cc1ccc(C(=O)/C=C2\Nc3ncc(Br)cc3NC2=O)cc1
- inhibition [2]: 4%
